The target of the assay is T1, full length AKT1 (Homo sapiens, UniProt P31749).
T1 construct: Full-length human AKT1 gene was amplified by PCR; His6 tag from the pFastBacHTb vector (own knowledge: N-terminal His6, spacer and TEV site; supported by the nickel purification) (N); made in house; host or cells: baculovirus-infected insect cells (virus produced in Sf9; T. ni cells infected; purification text says sf9 cells)
The assay can be described thus: Full-length AKT enzyme assay (substrate phosphorylation, SPA). The format is biochemical. As to conditions: in at least one experimental run; 10 nM activated AKT enzyme, 4 uM ATP; pIC50 = -log(IC50), IC50 in molar units; read-out: pIC50 value against full length AKT1 (converted). An excerpt: Cloning of Full-Length Human (FL) AKT1:
Full-length human AKT1 gene was amplified by PCR from a plasmid containing myristylated-AKT1-ER (gift from Robert T. Abraham, Duke University under MTA, described in Klippel et al. in Molecular and Cellular Biology 1998 Volume 18 p. 5699) using the 5′ primer: SEQ. ID NO: 2 5′ […] 3′ and the 3′ primer: SEQ. ID NO: 3 […] 3′. The 5′ primer included a BamHI site and the 3′ primer included an XhoI site for cloning purposes. The resultant PCR product was subcloned in pcDNA3 as a BamHI/XhoI fragment. A mutation in the sequence (TGC) coding for a Cysteine^25 was converted to the wild-type AKT1 sequence (CGC) coding for an Arginine^25 by site-directed mutagenesis using the QuikChange® Site Directed Mutagenesis Kit (Stratagene). The AKT1 mutagenic primer: SEQ. ID NO: 4 5′ […] and selection primer: SEQ. […] For expression/purification purposes, AKT1 was isolated as a BamHI/XhoI fragment and cloned into the BamHI/XhoI sites of pFastbacHTb (Invitrogen).
Expression of FL Human AKT1:
Expression was done using the BAC-to-BAC Baculovirus Expression System from Invitrogen (catalog #10359-016). […]
Compounds of the present invention were tested for AKT 1, 2, and 3 protein serine kinase inhibitory activity in substrate phosphorylation assays. […] Substrate phosphorylation was detected by the following procedure. […]

Structures are written as SMILES. Values joined by “and” are separate entries in the source; they are usually repeats but may differ in a detail not shown here. Identical values can stand only once.

T1 sequence (P31749 whole entry): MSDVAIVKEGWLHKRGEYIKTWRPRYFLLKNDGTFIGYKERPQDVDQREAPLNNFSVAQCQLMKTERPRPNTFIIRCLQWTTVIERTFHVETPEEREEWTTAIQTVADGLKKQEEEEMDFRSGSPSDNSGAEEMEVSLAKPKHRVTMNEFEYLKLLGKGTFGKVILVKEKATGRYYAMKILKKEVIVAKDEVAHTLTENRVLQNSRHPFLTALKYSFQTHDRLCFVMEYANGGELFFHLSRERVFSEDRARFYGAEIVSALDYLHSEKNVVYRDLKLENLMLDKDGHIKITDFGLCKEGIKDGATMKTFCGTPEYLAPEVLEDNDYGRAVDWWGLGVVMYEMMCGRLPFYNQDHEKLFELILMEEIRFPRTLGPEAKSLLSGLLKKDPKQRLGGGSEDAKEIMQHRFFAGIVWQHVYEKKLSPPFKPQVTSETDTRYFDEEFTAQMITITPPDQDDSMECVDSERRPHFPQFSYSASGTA

In the case of `Cn1nccc1-c1csc(C(=O)N[C@H](CN)Cc2cccc(F)c2)n1` [Example 1, N-{(1S)-2-amino-1-[(3-fluorophenyl)methyl]ethyl}-4-(1-methyl-1H-pyrazol-5-yl)-1,3-thiazole-2-carboxamide], the IC50 is ≤ 0.501 µM and 0.501 µM. Take `Cn1nccc1-c1csc(C(=O)NC(CN)Cc2ccccc2)n1` (centres unmarked) [Example 3, N-[2-amino-1-(phenylmethyl)ethyl]-4-(1-methyl-1H-pyrazol-5-yl)-1,3-thiazole-2-carboxamide]: the IC50 is at most 0.501 µM.

The values above are taken from patent US20110160256A1, “INHIBITORS OF AKT ACTIVITY” (priority 2008, published 2011).
